Some test systems named below: COLO 205 colon; OVCAR-5 ovarian; RXF 393 renal; HCT-15 colon; HT29 colon; UO-31 renal; RPMI-8226 leukemia; OVCAR-4 ovarian; MCF7 breast; U251 CNS.
What all share (experiment): growth of human tumour cells (NCI), 48 h

For nine compounds, TGI and GI50 results are on record in PubChem BioAssay (NCI).

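Five concentrations, 48 hours, 96-well plates. GI50 = concentration required for 50% inhibition of growth. At the TGI there is no net growth.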 A value given as a limit tells only on which side of the number the result lay.

`COc1cc2c(cc1C)NC(=O)/C2=C/c1c(Cl)n(C)c2ccccc12`: the TGI in the experiment on COLO 205 colon was 31.2 µM; with OVCAR-5 ovarian, 36.4 µM; in the experiment with RXF 393 renal, 19.6 µM; in the experiment on HCT-15 colon it was 20.5 µM; in the experiment on HT29 colon, 22.5 µM; in the experiment with UO-31 renal, 22.9 µM. Further, the TGI in the experiment with RPMI-8226 leukemia is > 100 µM; in the experiment on OVCAR-4 ovarian, 25 µM; in the experiment on MCF7 breast it was 25.7 µM; in the experiment with U251 CNS it was 28 µM.
As to `Nc1cc(N)c2nc(-c3ccccc3)c(Sc3ccc(F)cc3)nc2c1`, the GI50 in the experiment with COLO 205 colon was 22.1 µM; in the experiment with OVCAR-5 ovarian, 19 µM; in the experiment with RXF 393 renal it was 13.3 µM; in the experiment with HCT-15 colon, 13.4 µM; with HT29 colon, 17.8 µM; with UO-31 renal, 32 µM. Also, the GI50 is 28.3 µM with RPMI-8226 leukemia, 22.9 µM in the experiment on OVCAR-4 ovarian, 20 µM with MCF7 breast and 16.4 µM in the experiment with U251 CNS. Moreover, the TGI with COLO 205 colon was 47.9 µM; with OVCAR-5 ovarian it was 46.1 µM; with RXF 393 renal it was 29.3 µM; in the experiment with HCT-15 colon, 27.4 µM; with HT29 colon, 45.9 µM; in the experiment on UO-31 renal, > 100 µM. Besides, the TGI with RPMI-8226 leukemia turned out to be 81.5 µM; in the experiment on OVCAR-4 ovarian, 55.9 µM; in the experiment on MCF7 breast, 62.5 µM; with U251 CNS, 31.7 µM.
As for `O=C(O)CCCCCNC(=O)CCC(CN(CC(=O)OCc1ccccc1)CC(=O)OCc1ccccc1)N(CC(=O)OCc1ccccc1)CC(=O)OCc1ccccc1` (stereo not given), the TGI in the experiment with COLO 205 colon was determined as 33.7 µM; in the experiment on OVCAR-5 ovarian, 32.6 µM; in the experiment with RXF 393 renal, 28.9 µM; with HCT-15 colon, 34.6 µM; in the experiment on HT29 colon it was 33.7 µM; in the experiment on UO-31 renal it was 29.3 µM. In addition, the TGI worked out at 31.9 µM with RPMI-8226 leukemia, 32.5 µM in the experiment on OVCAR-4 ovarian, 36.2 µM in the experiment with MCF7 breast and 46.6 µM in the experiment on U251 CNS.
As for `COC(=O)C(I(OS(=O)(=O)c1ccc(C)cc1)c1ccccc1)=P(c1ccccc1)(c1ccccc1)c1ccccc1`, the TGI with COLO 205 colon is 13.1 µM; with OVCAR-5 ovarian, 73.1 µM; in the experiment with RXF 393 renal, 39.2 µM; in the experiment with HCT-15 colon, > 100 µM; with HT29 colon, 42.1 µM; in the experiment with UO-31 renal, 54.8 µM. Further, the TGI turned out to be 24.2 µM in the experiment with RPMI-8226 leukemia, 27 µM in the experiment with OVCAR-4 ovarian, 94.5 µM in the experiment with MCF7 breast and 40.7 µM with U251 CNS.
`COc1cccc(C(=O)C(O)c2cccc(OC)c2OC)c1OC` (stereo not given): the TGI with COLO 205 colon, in the experiment with OVCAR-5 ovarian, in the experiment on RXF 393 renal, with HCT-15 colon, in the experiment on HT29 colon and in the experiment on UO-31 renal was > 100 µM throughout. Also, the TGI with RPMI-8226 leukemia, in the experiment with OVCAR-4 ovarian, with MCF7 breast and in the experiment with U251 CNS was > 100 µM in each case.
Regarding `Cc1cc(C)n(CN(Cn2nc(C)cc2C)c2ccc(N(Cn3nc(C)cc3C)Cn3nc(C)cc3C)cc2)n1`, the TGI worked out at 31.5 µM in the experiment on COLO 205 colon; 51.1 µM with OVCAR-5 ovarian; 42.6 µM with RXF 393 renal; 45.4 µM with HCT-15 colon; 45 µM with HT29 colon; 95.2 µM with UO-31 renal. The TGI came to 40 µM in the experiment with RPMI-8226 leukemia, 43 µM in the experiment with OVCAR-4 ovarian, 44.4 µM with MCF7 breast and 91.1 µM with U251 CNS.
Consider `CC(C)(C)OC(=O)N1CC(COS(C)(=O)=O)c2ccc(O)cc21` (stereo not given), for which the TGI in the experiment with COLO 205 colon was determined as 3.31 µM; in the experiment on OVCAR-5 ovarian, 5.86 µM; with RXF 393 renal it was 0.924 µM; with HCT-15 colon, 5.68 µM; with HT29 colon it was 10.6 µM; in the experiment with UO-31 renal it was 5.26 µM. Further, the TGI in the experiment with RPMI-8226 leukemia came out at 3.96 µM; with OVCAR-4 ovarian it was 3.13 µM; in the experiment with MCF7 breast, 7.49 µM; with U251 CNS it was 9.69 µM.
On to `CN(C)/C=C/c1ccnc2c1C(=O)c1ccccc1C2=O`, for which the TGI is > 55.1 µM in the experiment with COLO 205 colon; 32.5 µM in the experiment with OVCAR-5 ovarian; > 100 µM in the experiment with RXF 393 renal; 31.5 µM in the experiment with HCT-15 colon; 37.9 µM in the experiment on HT29 colon; 43.6 µM in the experiment on UO-31 renal. Moreover, the TGI was 39.3 µM in the experiment with RPMI-8226 leukemia, 66 µM with OVCAR-4 ovarian, > 44.7 µM in the experiment on MCF7 breast and 49.7 µM with U251 CNS.
For the compound `N#Cc1c(C#N)c(-c2ccco2)n(/N=C/c2ccco2)c1N`, the TGI with COLO 205 colon is > 100 µM; with OVCAR-5 ovarian, > 100 µM; in the experiment on RXF 393 renal, 89.1 µM; with HCT-15 colon, > 100 µM; in the experiment on HT29 colon, > 100 µM; in the experiment with UO-31 renal, > 100 µM. For the same compound, the TGI was > 100 µM in the experiment on RPMI-8226 leukemia, > 100 µM in the experiment with OVCAR-4 ovarian, > 100 µM with MCF7 breast and 60.3 µM in the experiment on U251 CNS.
